“And” between values parts separate entries of the source, which are not always exact repeats. Identical values can stand only once.
System: CMV
Experiment: Study HDP-CDV-201: prevention or control of CMV infection in R+ HSCT recipients (efficacy)
Type: in vivo, human (adult allogeneic HSCT recipients)
Conditions: for Rate of CMV Disease or End of Treatment CMV Infection (≧200 copies/ml): missing=infection; for Rate of CMV DNAemia ≧1000 copies/mL during the treatment period: post hoc; for Developed CMV DNAemia (≧100 copies/mL) during the treatment period: plasma CMV DNA negative at baseline
Description: The clinical study of the current invention (HDP-CDV-201) was a 9-11 week randomized, placebo-controlled, double-blind, dose-escalation study (40 mg weekly [QW], 100 mg QW, 200 mg QW, 200 mg twice-weekly [BIW], and 100 mg BIW) of HDP-CDV for the prevention of CMV infection post-HCT. Treatment was initiated at the time of engraftment and continued until Week 13 post-HCT. HDP-CDV, at various doses, was active and well tolerated in the prevention CMV infection or disease.
Clinical Studies of HDP-CDV were performed and described in detail in the following Examples. For example, HDP-CDV-201 is a placebo-controlled, dose-escalating trial in HSCT CMV (R+) recipients, evaluating the ability of HDP-CDV to prevent or control CMV infection was carried out. Five cohorts were established in which participants or subjects received either placebo or the HDP-CDV orally, in doses ranging from 40 mg weekly (QW) to 200 mg twice weekly (BIW). Subjects who were post-HSCT were enrolled at the time of engraftment and randomized to HDP-CDV or placebo (3 to 1 ratio) and received blinded therapy until approximately 100 day post-transplantation. HDP-CDV doses were 40 mg QW, 100 mg QW, 200 mg QW, 200 mg BIW and 100 mg BIW. Escalation to the next dose was decided by the data monitoring committee after review of the safety data from the previous Cohort. Subjects who developed CMV disease or CMV infection requiring pre-emptive therapy with local standard of care were discontinued from blinded therapy and followed for 4 weeks. Subjects who completed treatment with blinded therapy were followed for 8 weeks post-therapy.
The primary endpoint was defined as the incidence of CMV disease at any time during treatment or CMV DNAemia≧200 copies/mL at the end of treatment. All subjects who received at least one dose of drug/placebo and had at least one efficacy evaluation post baseline were included in the primary analysis, regardless of their CMV DNAemia status (negative or positive) at baseline (mITT population). Results for the pooled HDP-CDV Cohorts and for each Cohort separately were analyzed versus that for pooled placebo.
The primary efficacy measure for this study was treatment failure, defined as the occurrence of CMV infection, defined as CMV DNAemia>200 copies/mL at the End of Treatment or diagnosis of CMV disease at any time during the treatment period. For the analysis, the following definitions apply:
For subjects who completed the treatment phase of the study, the End of Treatment was defined as the latest assessment from date of the last dose of study drug and up to 7 days for QW dosing, or the date of the last dose of study drug and up to 4 days for BIW dosing. For subjects who discontinued during the treatment phase of the study, the End of Treatment was defined as the date of the last dose of study drug.
The time to event was defined as the period between FDD and date of first occurrence of the event of interest (inclusive). The events included onset of CMV DNAemia, onset of CMV disease, and discontinuation because of excluded anti-CMV medications. Time to event/onset was derived as (the event/onset date—FDD)+1.
As detailed in the Statistical Analysis Plan, a modified CMV stratum was defined prior to conducting the statistical analysis based upon polymerase chain reaction (PCR) results from the central laboratory. If any positive CMV DNA value in plasma was collected before the first dose of study drug (including Screening, Pre-dose, (combined Screening/Pre-dose), CMV for stratification, and FDD), then the subject was placed into the modified CMV positive (≧100 copies/mL) stratum, otherwise the subject was in the modified CMV negative stratum. […]

[1] = 100 mg BIW, modified CMV negative stratum
[2] = 100 mg BIW, whole study period, CMV DNA negative at baseline
[3] = 100 mg QW, CMV modified strata: negative
[4] = 100 mg QW, CMV modified strata: positive
[5] = 100 mg QW, active treatment period
[6] = 100 mg QW, modified CMV negative stratum

CCCCCCCCCCCCCCCCOCCCOP(=O)(O)COC(CO)Cn1ccc(N)nc1=O (stereo not drawn) [HDP-CDV]
Incidence of CMV disease or initiation of anti-CMV preemptive therapy (100 mg BIW, mITT): 14%
Subjects Receiving Antiviral Therapy and/or had CMV disease (100 mg BIW, mITT): 7 (14.0%) subjects (%)
Subjects without a CMV event (100 mg BIW, mITT): 43 (86.0%) subjects (%)
Time to Antiviral Therapy, Median (100 mg BIW, mITT): 23.0 days
Rate of CMV Disease or End of Treatment CMV Infection (≧200 copies/ml) (100 mg BIW, mITT): 10%
Rate of CMV DNAemia ≧1000 copies/mL during the treatment period (100 mg BIW, mITT): 8%
Time to Antiviral Therapy, Mean (100 mg BIW, mITT, censored values not included): 23.1 days
% CMV Event Rate: Incidence of CMV DNAemia >100 copies/mL During Treatment (Fisher analysis, ref 14.3.3.2.1) [1]: 9 (22.5%) subjects (%)
% CMV Event Rate: Incidence of CMV DNAemia ≧1,000 copies/mL at any time during treatment [1]: 0 subjects (%)
% CMV Event Rate: onset of CMV DNAemia During Whole Study [1]: 14 (33.3%) subjects (%)
Combined CMV event rate (CMV disease, viremia requiring treatment, viremia ≧1000 copies/mL) [1]: 12.2%
Subjects Who Had CMV-related Event (CMV disease, CMV DNAemia ≧1,000 c/mL or initiation of anti-CMV treatment) [1]: 5 (12.2%) subjects (%)
Subjects without a CMV-related event [1]: 36 (87.8%) subjects (%)
Developed CMV DNAemia (≧100 copies/mL) during the treatment period (100 mg BIW, mITT): 10 (23.8.%) N(%) and 10 (23.8%) N(%)
Time to CMV DNAemia (≧100 copies/mL), Median (100 mg BIW, treatment period, CMV DNA negative at baseline): 20.0 days
Time to CMV DNAemia (≧100 copies/mL), Mean (100 mg BIW, treatment period, CMV DNA negative at baseline, censored values not included): 28.8 days
Number of Subjects who had CMV DNAemia (≧100 copies/mL) by the end of study [2]: 14
Time to CMV DNAemia (≧100 copies/mL), Mean [2]: 42.8 days
Time to CMV DNAemia (≧100 copies/mL), Median [2]: 32.5 days
Incidence of composite endpoint (initiation of anti-CMV therapy or CMV disease or CMV DNAemia >1,000 copies/mL) (100 mg QW): 21.7%
Difference (HDP-CDV minus placebo) in infection rate [3]: −16.7%
Difference (HDP-CDV minus placebo) in rate of CMV DNAemia ≧1,000 copies/ml [3]: −23.2%
Rate of CMV DNAemia ≧1,000 copies/ml during the treatment period [3]: 8.7%
Rate of CMV Disease or End of Treatment CMV Infection [3]: 13.0%
Difference (HDP-CDV minus placebo) in rate of CMV DNAemia ≧1,000 copies/mL [4]: 16.7%
Rate of CMV DNAemia ≧1,000 copies/mL during the treatment period [4]: 100.0%
Rate of CMV Disease or End of Treatment CMV Infection (100 mg QW, aGVHD randomization strata: negative): 24.0%
Difference (HDP-CDV minus placebo) in infection rate (100 mg QW, aGVHD strata: negative): −8.1%
Discontinuation: Emergence of CMV disease [5]: 3 Subject n (%) and 3 (11.1%) Subject n (%)
Discontinuation: Initiation of alternate CMV therapy [5]: 4 (14.8%) Subject n (%)
Difference (HDP-CDV minus placebo) in rate of CMV DNAemia ≧1000 copies/mL (100 mg QW, mITT): −20.2%
Difference (HDP-CDV minus placebo) in rate of CMV disease or end of treatment CMV infection (100 mg QW, mITT): −15.1%
Subjects Receiving Antiviral Therapy and/or had CMV disease (100 mg QW, mITT): 7 (25.9%) subjects (%)
Subjects without a CMV event (100 mg QW, mITT): 20 (74.1%) subjects (%)
Time to Antiviral Therapy, Median (100 mg QW, mITT): 41.0 days
Rate of CMV Disease or End of Treatment CMV Infection (≧200 copies/ml) (100 mg QW, mITT): 22% and 22.2%
Rate of CMV DNAemia ≧1000 copies/mL during the treatment period (100 mg QW, mITT): 22.2%
Time to Antiviral Therapy, Mean (100 mg QW, mITT, censored values not included): 41.9 days
% CMV Event Rate: Incidence of CMV DNAemia >100 copies/mL During Treatment (Fisher analysis, ref 14.3.3.2.1) [6]: 5 (21.7%) subjects (%)
% CMV Event Rate: Incidence of CMV DNAemia ≧1,000 copies/mL at any time during treatment [6]: 2 (8.7%) subjects (%)
% CMV Event Rate: onset of CMV DNAemia During Whole Study [6]: 8 (34.8%) subjects (%)
Subjects Who Had CMV-related Event (CMV disease, CMV DNAemia ≧1,000 c/mL or initiation of anti-CMV treatment) [6]: 5 (21.7%) subjects (%)
Subjects without a CMV-related event [6]: 18 (78.3%) subjects (%)
Developed CMV DNAemia (≧100 copies/mL) during the treatment period (100 mg QW, mITT): 5 (21.7%) N(%)
Time to CMV DNAemia (≧100 copies/mL), Median (100 mg QW, treatment period, CMV DNA negative at baseline): 30.0 days

Reference: patent US20140303092A1 (CHIMERIX, INC., priority 2011, published 2014)
